From patent US11999746B2, “Compounds” (GlaxoSmithKline Intellectual Property Development Limited, priority 2014, dated 2024) come the findings set out here.

Each structure is given as a SMILES string.

The target in test [1] is T1, Lp-PLA2 in human plasma (Homo sapiens, UniProt Q13093).
T1 construct: from tissue; host or cells: pooled human plasma
T1 sequence (Q13093 22-441): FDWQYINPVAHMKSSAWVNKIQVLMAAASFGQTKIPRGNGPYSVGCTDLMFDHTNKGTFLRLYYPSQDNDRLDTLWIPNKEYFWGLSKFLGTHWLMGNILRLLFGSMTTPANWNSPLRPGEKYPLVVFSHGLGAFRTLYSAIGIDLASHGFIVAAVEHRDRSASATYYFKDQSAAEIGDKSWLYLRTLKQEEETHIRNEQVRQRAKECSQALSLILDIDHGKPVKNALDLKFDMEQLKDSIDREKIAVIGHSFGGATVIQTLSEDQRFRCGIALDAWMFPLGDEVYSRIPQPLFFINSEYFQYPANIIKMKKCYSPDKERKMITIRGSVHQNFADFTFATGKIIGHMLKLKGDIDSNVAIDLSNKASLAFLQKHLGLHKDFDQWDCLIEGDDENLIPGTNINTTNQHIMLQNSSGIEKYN
In words: (3b) Lp-PLA2 human plasma alternative Thio-PAF assay. As to conditions: (3b) alternative Thio-PAF assay, pooled human plasma; Examples of 266-412 were tested here; read-out: pIC50 in the Lp-PLA2 human plasma assay (converted). It counts as biochemical. In outline: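 Pooled human plasma was preincubated with compound for 15 min at RT. Substrate solution (2 mM 2-thio-PAF, 52 μM CPM, 2.5 mM NEM in 50 mM HEPES pH 7.4, 150 mM NaCl, 1 mM CHAPS; pre-addition concentrations) was added, and the reaction was quenched with 5% TFA after 3 min. Fluorescence was read at ex 380/em 485 nm and fitted to give pIC50.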

The target in test [2] is T2, recombinant human Lp-PLA2 (Homo sapiens, UniProt Q13093).
T2 sequence (Q13093 22-441): T1 sequence (Q13093 22-441)
The experiment in a line: (1b) hrThioPAF assay, recombinant human Lp-PLA2. It is filed as biochemical. Conditions: Examples 266-412 were tested here, one experiment or average of multiple experiments, read-out: rhLp-PLA2 (pIC50) (converted). In outline:
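Fluorogenic assay: 20 pM rhLp-PLA2 in 50 mM HEPES pH 7.4, 150 mM NaCl, 1 mM CHAPS with 1:3 serially diluted compounds; substrate mix of 40 μM 2-thio-PAF, 40 μM CPM, 400 μM NEM (pre-addition levels). 20 min at 25 °C in the dark; fluorescence ex 380/em 485 nm, pIC50 by curve fitting.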

In the case of `O=c1nc(OCc2cc(F)c(Oc3ccnc(C(F)(F)F)c3)c(F)c2)cc2n1CC1CS(=O)(=O)CCN21` (centres unmarked) [Example E370, 7-((3,5-Difluoro-4-((2-(trifluoromethyl)pyridin-4-yl)oxy)benzyl)oxy)-3,4,11,11a-tetrahydropyrimido[6′,1′:2,3]imidazo[5,1-c][1,4]thiazin-9(1H)-one-2,2-dioxide], the IC50 is not above 100 nM in test [1] and not above 10000 nM in test [2].

Turning to `N#Cc1cc(COc2cc3n(c(=O)n2)CC2CS(=O)(=O)CCN32)ccc1F` (centres unmarked) [Example E367, 5-(((2,2-Dioxido-9-oxo-1,3,4,9,11,11a-hexahydropyrimido[6′,1′:2,3]imidazo[5,1-c][1,4]thiazin-7-yl)oxy)methyl)-2-fluorobenzonitrile], the IC50 in test [1] is not above 100 nM; in test [2] it was not above 10000 nM.

Take `N#Cc1cc(COc2cc3n(c(=O)n2)CC2CN(CCC(=O)O)CCN32)ccc1F` (centres unmarked) [Example E325, 3-(7-((3-Cyano-4-fluorobenzyl)oxy)-9-oxo-3,4,11,11a-tetrahydro-1H-pyrazino[1,2′:3,4]imidazo[1,2-c]pyrimidin-2(9H)-yl)propanoic acid]: the IC50 in test [1] is not above 100 nM; in test [2] it was not above 10000 nM.

For `O=c1nc(OCc2cc(F)c(Oc3ccnc(C(F)(F)F)c3)c(F)c2)cc2n1CC1(COC1)N2` [Example E395, 7-((3,5-difluoro-4-((2-(trifluoromethyl)pyridin-4-yl)oxy)benzyl)oxy)-1H-spiro[imidazo[1,2-c]pyrimidine-2,3′-oxetan]-5(3H)-one], the figures for the IC50 in test [1] and in test [2] were not above 100 nM and 0.794 nM, respectively.

On to `N#Cc1cc(COc2cc3n(c(=O)n2)CC2CN(CC(F)(F)F)CCN32)ccc1F` (centres unmarked) [Example E322, 2-Fluoro-5-(((9-oxo-2-(2,2,2-trifluoroethyl)-2,3,4,9,11,11a-hexahydro-1H-pyrazino[1′,2′:3,4]imidazo[1,2-c]pyrimidin-7-yl)oxy)methyl)benzonitrile], for which the IC50 is not above 100 nM in test [1] and not above 10000 nM in test [2].

For `O=c1nc(OCc2cc(F)c(Oc3ccnc(C(F)(F)F)c3)c(F)c2)cc2n1C[C@@H]1C[C@H](O)CN21` [Example E383, (7S,8aS)-3-((3,5-Difluoro-4-((2-(trifluoromethyl)pyridin-4-yl)oxy)benzyl)oxy)-7-hydroxy-7,8,8a,9-tetrahydropyrrolo[1′,2′:3,4]imidazo[1,2-c]pyrimidin-1(6H)-one], the results for the IC50 in test [1] and in test [2] were not above 100 nM and not above 1 nM, respectively.

For `COC(=O)N1CCN2c3cc(OCc4ccc(F)c(F)c4)nc(=O)n3CC2C1` (centres unmarked) [Example E300, Methyl 7-((3,4-difluorobenzyl)oxy)-9-oxo-3,4,11,11a-tetrahydro-1H-pyrazino[1′,2′:3,4]imidazo[1,2-c]pyrimidine-2(9H)-carboxylate], the IC50 in test [1] was not above 100 nM; in test [2] it was not above 10000 nM.

Turning to `[2H]C1([2H])C2CN(C(C)=O)CCN2c2cc(OCc3ccc(F)c(C#N)c3)nc(=O)n21` (centres unmarked) [Example E285, 5-(((2-Acetyl-11,11-dideutero-9-oxo-2,3,4,9,11,11a-hexahydro-1H-pyrazino[1′,2′:3,4]imidazo[1,2-c]pyrimidin-7-yl)oxy)methyl)-2-fluorobenzonitrile], the IC50 in test [1] was not above 100 nM; in test [2], not above 10000 nM.

As to `CCN1CCN2c3cc(OCc4ccc(F)c(C#N)c4)nc(=O)n3CC2C1` (centres unmarked) [Example E280, 5-(((2-Ethyl-9-oxo-2,3,4,9,11,11a-hexahydro-1H-pyrazino[1′,2′:3,4]imidazo[1,2-c]pyrimidin-7-yl)oxy)methyl)-2-fluorobenzonitrile], the values for the IC50 in test [1] and in test [2] were not above 100 nM and not above 10000 nM, respectively.

As to `Cc1ccc(Oc2c(F)cc(COc3cc4n(c(=O)n3)CC3(COC3)N4C)cc2C#N)cn1` [Example 399, 3-Fluoro-5-(((1-methyl-5-oxo-3,5-dihydro-1H-spiro[imidazo[1,2-c]pyrimidine-2,3′-oxetan]-7-yl)oxy)methyl)-2-((6-methylpyridin-3-yl)oxy)benzonitrile], the IC50 in test [1] is not above 100 nM; in test [2], not above 10000 nM.

Regarding `N[C@@H]1C[C@H]2Cn3c(cc(OCc4cc(F)c(Oc5ccnc(C(F)(F)F)c5)c(F)c4)nc3=O)N2C1` [Example E392, (7R,8aS)-7-Amino-3-((3,5-difluoro-4-((2-(trifluoromethyl)pyridin-4-yl)oxy)benzyl)oxy)-7,8,8a,9-tetrahydropyrrolo[1′,2′:3,4]imidazo[1,2-c]pyrimidin-1(6H)-one], the figures for the IC50 in test [1] and in test [2] were not above 100 nM and not above 10000 nM, respectively.

As to `CC(C)(N)C(=O)N1CCN2c3cc(OCc4ccc(F)c(F)c4)nc(=O)n3CC2C1` (centres unmarked) [Example E335, 2-(2-Amino-2-methylpropanoyl)-7-((3,4-difluorobenzyl)oxy)-3,4,11,11a-tetrahydro-1H-pyrazino[1,2′:3,4]imidazo[1,2-c]pyrimidin-9(2H)-one], the IC50 in test [1] was not above 100 nM; in test [2], not above 10000 nM.

With `O=c1nc(OCc2cc(F)c(Oc3ccnc(C(F)(F)F)c3)c(F)c2)cc2n1CC1CSCCN21` (centres unmarked) [Example E368, 7-((3,5-Difluoro-4-((2-(trifluoromethyl)pyridin-4-yl)oxy)benzyl)oxy) 3,4,11,11a-tetrahydropyrimido[6′,1′:2,3]imidazo[5,1-c][1,4]thiazin-9(1H)-one], the IC50 in test [1] was not above 100 nM; in test [2], not above 1 nM.

As to `CN1CCN2c3cc(OCc4ccc(F)c(F)c4)nc(=O)n3CC2C1` (centres unmarked) [Example E320, 7-((3,4-Difluorobenzyl)oxy)-2-methyl-3,4,11,11a-tetrahydro-1H-pyrazino[1,2′:3,4]imidazo[1,2-c]pyrimidin-9(2H)-one], the IC50 in test [1] was not above 100 nM; in test [2] it was not above 10000 nM.

As for `CN(C)C(=O)N1CCN2c3cc(OCc4ccc(F)c(F)c4)nc(=O)n3CC2C1` (centres unmarked) [Example E301, 7-((3,4-Difluorobenzyl)oxy)-N,N-dimethyl-9-oxo-3,4,11,11a-tetrahydro-1H-pyrazino[1′,2′:3,4]imidazo[1,2-c]pyrimidine-2(9H)-carboxamide], the IC50 in test [1] was not above 100 nM; in test [2], not above 10000 nM.

For the compound `N[C@H]1C[C@H]2Cn3c(cc(OCc4cc(F)c(Oc5ccnc(C(F)(F)F)c5)c(F)c4)nc3=O)N2C1` [Example E390, (7S,8aS)-7-Amino-3-((3,5-difluoro-4-((2-(trifluoromethyl)pyridin-4-yl)oxy)benzyl)oxy)-7,8,8a,9-tetrahydropyrrolo[1′,2′:3,4]imidazo[1,2-c]pyrimidin-1(6H)-one], the IC50 in test [1] is not above 100 nM; in test [2], not above 10000 nM.

Consider `O=c1nc(OCc2ccc(F)c(F)c2)cc2n1CC1(COC1)N2` [Example E396, 7-((3,4-difluorobenzyl)oxy)-1H-spiro[imidazo[1,2-c]pyrimidine-2,3′-oxetan]-5(3H)-one], for which the IC50 is not above 100 nM in test [1] and not above 10000 nM in test [2].

Consider `O=c1nc(OCc2cc(F)c(Oc3cncc(C(F)(F)F)c3)c(F)c2)cc2n1CC1CS(=O)(=O)CCN21` (centres unmarked) [Example E373, 7-((3,5-Difluoro-4-((5-(trifluoromethyl)pyridin-3-yl)oxy)benzyl)oxy)-3,4,11,11a-tetrahydropyrimido[6′,1′:2,3]imidazo[5,1-c][1,4]thiazin-9(1H)-one 2,2-dioxide], for which the IC50 in test [1] was not above 100 nM; in test [2], not above 10000 nM.

Consider `N#Cc1cc(COc2cc3n(c(=O)n2)CC2CN(C(=O)C4CC4)CCN32)ccc1F` (centres unmarked) [Example E292, 5-(((2-(cyclopropanecarbonyl)-9-oxo-2,3,4,9,11,11a-hexahydro-1H-pyrazino[1′,2′:3,4]imidazo[1,2-c]pyrimidin-7-yl)oxy)methyl)-2-fluorobenzonitrile 2,2,2-trifluoroacetate], for which the IC50 in test [1] is not above 100 nM; in test [2], not above 10000 nM.

In the case of `O=c1nc(OCc2cc(F)c(Oc3cncc(C(F)(F)F)c3)c(F)c2)cc2n1CC1(CCOCC1)N2` [Example 401, 7-((3,5-Difluoro-4-((5-(trifluoromethyl)pyridin-3-yl)oxy)benzyl)oxy)-2′,3′,5′,6′-tetrahydro-1H-spiro[imidazo[1,2-c]pyrimidine-2,4′-pyran]-5(3H)-one], the figures for the IC50 in test [1] and in test [2] were not above 100 nM and 0.631 nM, respectively.

Turning to `CN1c2cc(OCc3ccc(F)c(F)c3)nc(=O)n2CC12COC2` [Example 398, 7-((3,4-Difluorobenzyl)oxy)-1-methyl-1H-spiro[imidazo[1,2-c]pyrimidine-2,3′-oxetan]-5(3H)-one], the IC50 was not above 100 nM in test [1] and not above 10000 nM in test [2].

In the case of `CC(C)C(=O)C(=O)N1CCN2c3cc(OCc4ccc(F)c(F)c4)nc(=O)n3CC2C1` (centres unmarked) [Example E303, 1-(7-((3,4-Difluorobenzyl)oxy)-9-oxo-3,4,11,11a-tetrahydro-1H-pyrazino[1′,2′:3,4]imidazo[1,2-c]pyrimidin-2(9H)-yl)-3-methylbutane-1,2-dione], the figures for the IC50 in test [1] and in test [2] were not above 100 nM and not above 10000 nM, respectively.
